In US20230321196A1 (priority 2020, published 2023):
Where two headings read alike, the source gives them in different places. Bridges are numbered along the chain shown (N, C = ends). Where no end group is shown, it is not given here.

Columns and labels:
[1] = system: influenzavirus-infected mice; format: in vivo; settings: mean ± SE
[2] = system: influenzavirus-infected mice; format: in vivo; settings: for Score of gross lesion examination of lung: day 5 after inoculation
[3] = system: influenzavirus PR8(A/PR/8/34 (H1N1)); experiment: Test III: virus concentration in lung; format: in vivo, mice; settings: administered groups vs control group
[4] = system: influenzavirus-infected mice; format: in vivo
[5] = system: influenzavirus-infected mice; format: in vivo; remark: listed apart in the source
[6] = system: influenzavirus-infected mice; format: in vivo; settings: left lung, mean ± SE
[7] = system: influenzavirus-infected mice; format: in vivo; remark: listed apart in the source
[8] = system: influenzavirus PR8(A/PR/8/34 (H1N1)); experiment: Test II: virus concentration in lung; format: in vivo, mice; settings: for Virus concentration in lung: right lung, day 5 after inoculation, mean ± SE
[9] = system: influenzavirus-infected mice; format: in vivo; remark: listed apart in the source
[10] = system: influenzavirus-infected mice; format: in vivo; settings: for Score of gross lesion examination of lung: day 5 after inoculation; remark: listed apart in the source
[11] = system: COVID-19 patients; settings: 15 ng/kg body weight/min i.v. continuous 72 hours, then 8 hours per day up to day 10; trial still blinded
[12] = 25 nmol/kg i.v., day 1 after inoculation
[13] = 25 nmol/kg i.v., day 2 after inoculation
[14] = 25 nmol/kg i.v., day 3 after inoculation
[15] = 25 nmol/kg i.v., day 4 after inoculation
[16] = 25 nmol/kg i.v., day 5 after inoculation
[17] = 25 nmol/kg tail vein once per day, day 0 after inoculation, mean ± SE
[18] = 250 nmol/kg i.v., day 1 after inoculation
[19] = 250 nmol/kg i.v., day 2 after inoculation
[20] = 250 nmol/kg i.v., day 3 after inoculation
[21] = 250 nmol/kg i.v., day 4 after inoculation
[22] = 250 nmol/kg i.v., day 5 after inoculation
[23] = 250 nmol/kg tail vein once per day, day 0 after inoculation, mean ± SE
[24] = 10 nmol/kg i.v., day 0 after inoculation
[25] = 10 nmol/kg i.v., day 1 after inoculation
[26] = 10 nmol/kg i.v., day 2 after inoculation
[27] = 10 nmol/kg i.v., day 3 after inoculation
[28] = 10 nmol/kg i.v., day 4 after inoculation
[29] = 10 nmol/kg i.v., day 5 after inoculation
[30] = 10 nmol/kg tail vein once per day, 1 day before inoculation, mean ± SE
[31] = 100 nmol/kg i.v., day 0 after inoculation
[32] = 100 nmol/kg i.v., day 1 after inoculation
[33] = 100 nmol/kg i.v., day 2 after inoculation
[34] = 100 nmol/kg i.v., day 3 after inoculation
[35] = 100 nmol/kg i.v., day 4 after inoculation
[36] = 100 nmol/kg i.v., day 5 after inoculation
[37] = 100 nmol/kg tail vein once per day, 1 day before inoculation, mean ± SE
[38] = Test II, administered groups vs control group

Question: For “60K PEG-AM: adrenomedullin derivative having a PEG group with a weight-average molecular weight of 60 kDa, prepared according to WO 2017/047788”, which “Score of histopathological examination of lung: Pneumonia score” value ([1]; Table 14, 25 nmol/kg i.v. once per day) is on record?
Answer: 8.3 ± 1.5

Question: What about the “Score of histopathological examination of lung: Pneumonia score” value ([1]; Table 14, 250 nmol/kg i.v. once per day) of the same compound?
Answer: 9.4 ± 0.6

Question: And the “Score of histopathological examination of lung: Pneumonia score” value ([1]; Table 15, 25 nmol/kg i.v. once per day)?
Answer: 8.3 ± 1.5

Question: And the “Score of histopathological examination of lung: Pneumonia score” value ([1]; Table 15, 250 nmol/kg i.v. once per day)?
Answer: 9.4 ± 0.6

Question: And the “Score of gross lesion examination of lung” value ([2]; Left lung, 25 nmol/kg i.v. once per day, mean ± SE)?
Answer: 2.0 ± 0.5

Question: And the “Score of gross lesion examination of lung” value ([2]; Left lung, 250 nmol/kg i.v. once per day)?
Answer: 2.4 ± 0.2

Question: What about the “Score of gross lesion examination of lung” value ([2]; Right lung, 25 nmol/kg i.v. once per day) of the same compound?
Answer: 2.0 ± 0.5

Question: And the “Score of gross lesion examination of lung” value ([2]; Right lung, 250 nmol/kg i.v. once per day)?
Answer: 1.9 ± 0.3

Question: What about the “gross lesion formation in the lung” value ([2]; Test III, administered groups vs control group) of the same compound?
Answer: significantly suppressed

Question: And the “virus concentration in the lung” value [3]?
Answer: significantly decreased

Question: What about the Body weight [4, 12] of the same compound?
Answer: 16.4 ± 0.4

Question: What about the Body weight [4, 13] of the same compound?
Answer: 16.3 ± 0.4

Question: What about the Body weight [4, 14] of the same compound?
Answer: 14.5 ± 0.4

Question: What about the Body weight [4, 15] of the same compound?
Answer: 13.9 ± 0.5

Question: And the Body weight [4, 16]?
Answer: 13.9 ± 0.5

Question: What about the Body weight [4, 17] of the same compound?
Answer: 16.4 ± 0.4

Question: What about the Body weight [4, 18] of the same compound?
Answer: 16.1 ± 0.4

Question: And the Body weight [4, 19]?
Answer: 15.8 ± 0.5

Question: What about the Body weight [4, 20] of the same compound?
Answer: 14.3 ± 0.4

Question: What about the Body weight [4, 21] of the same compound?
Answer: 13.7 ± 0.3

Question: And the Body weight [4, 22]?
Answer: 13.3 ± 0.3

Question: And the Body weight [4, 23]?
Answer: 16.4 ± 0.3

Question: What about the General condition score [5, 12] of the same compound?
Answer: 0.0 ± 0.0

Question: And the General condition score [5, 13]?
Answer: 0.1 ± 0.0

Question: And the General condition score [5, 14]?
Answer: 0.5 ± 0.0

Question: And the General condition score [5, 15]?
Answer: 0.7 ± 0.1

Question: And the General condition score [5, 16]?
Answer: 0.9 ± 0.1

Question: And the General condition score [5, 17]?
Answer: 0.0 ± 0.0

Question: And the General condition score [5, 18]?
Answer: 0.0 ± 0.0

Question: What about the General condition score [5, 19] of the same compound?
Answer: 0.1 ± 0.0

Question: What about the General condition score [5, 20] of the same compound?
Answer: 0.5 ± 0.0

Question: And the General condition score [5, 21]?
Answer: 0.8 ± 0.0

Question: And the General condition score [5, 22]?
Answer: 1.0 ± 0.0

Question: What about the General condition score [5, 23] of the same compound?
Answer: 0.0 ± 0.0

Question: “[Ala-44]hAM(13-52): adrenomedullin analog: peptide of SEQ ID NO: 17, amidated at the C-terminus, disulfide bond formed by two cysteine residues (SFGCRFGTCTVQKLAHQIYQFTDKDKDNVAPASKISPQGY-NH2; disulfide 4-9 (inferred))” was tested. Which “Score of histopathological examination of lung: Pneumonia score” value ([6]; 10 nmol/kg i.v. once per day) did it give?
Answer: 8.9 ± 0.4

Question: What about the “Score of histopathological examination of lung: Pneumonia score” value ([6]; 100 nmol/kg i.v. once per day) of the same compound?
Answer: 9.0 ± 0.5

Question: What about the Body weight [7, 24] of the same compound?
Answer: 15.7 ± 0.3

Question: And the Body weight [7, 25]?
Answer: 16.1 ± 0.3

Question: What about the Body weight [7, 26] of the same compound?
Answer: 15.1 ± 0.3

Question: What about the Body weight [7, 27] of the same compound?
Answer: 14.0 ± 0.3

Question: And the Body weight [7, 28]?
Answer: 13.2 ± 0.2

Question: What about the Body weight [7, 29] of the same compound?
Answer: 12.8 ± 0.2

Question: And the Body weight [7, 30]?
Answer: 15.8 ± 0.2

Question: And the Body weight [7, 31]?
Answer: 15.8 ± 0.2

Question: What about the Body weight [7, 32] of the same compound?
Answer: 16.2 ± 0.3

Question: And the Body weight [7, 33]?
Answer: 15.5 ± 0.2

Question: What about the Body weight [7, 34] of the same compound?
Answer: 14.6 ± 0.3

Question: And the Body weight [7, 35]?
Answer: 13.6 ± 0.2

Question: And the Body weight [7, 36]?
Answer: 12.9 ± 0.1

Question: What about the Body weight [7, 37] of the same compound?
Answer: 15.8 ± 0.2

Question: And the “Virus concentration in lung” value ([8]; 10 nmol/kg i.v. once per day)?
Answer: 53.0 ± 3.0 ×10^4 PFU/right lung

Question: And the “Virus concentration in lung” value ([8]; 100 nmol/kg i.v. once per day)?
Answer: 43.3 ± 4.6 ×10^4 PFU/right lung

Question: What about the “virus concentration in the lung” value [8, 38] of the same compound?
Answer: significantly decreased

Question: And the General condition score [9, 24]?
Answer: 0.0 ± 0.0

Question: What about the General condition score [9, 25] of the same compound?
Answer: 0.0 ± 0.0

Question: And the General condition score [9, 26]?
Answer: 0.2 ± 0.0

Question: What about the General condition score [9, 27] of the same compound?
Answer: 0.5 ± 0.0

Question: What about the General condition score [9, 28] of the same compound?
Answer: 0.8 ± 0.0

Question: What about the General condition score [9, 29] of the same compound?
Answer: 1.0 ± 0.0

Question: And the General condition score [9, 30]?
Answer: 0.0 ± 0.0

Question: And the General condition score [9, 31]?
Answer: 0.0 ± 0.0

Question: And the General condition score [9, 32]?
Answer: 0.0 ± 0.0

Question: And the General condition score [9, 33]?
Answer: 0.1 ± 0.0

Question: What about the General condition score [9, 34] of the same compound?
Answer: 0.5 ± 0.0

Question: And the General condition score [9, 35]?
Answer: 0.8 ± 0.0

Question: And the General condition score [9, 36]?
Answer: 1.0 ± 0.0

Question: What about the General condition score [9, 37] of the same compound?
Answer: 0.0 ± 0.0

Question: What about the “Score of gross lesion examination of lung” value ([10]; Left lung, 10 nmol/kg i.v. once per day, mean ± SE) of the same compound?
Answer: 2.8 ± 0.2

Question: And the “Score of gross lesion examination of lung” value ([10]; Left lung, 100 nmol/kg i.v. once per day)?
Answer: 2.6 ± 0.2

Question: And the “Score of gross lesion examination of lung” value ([10]; Right lung, 10 nmol/kg i.v. once per day)?
Answer: 2.9 ± 0.1

Question: And the “Score of gross lesion examination of lung” value ([10]; Right lung, 100 nmol/kg i.v. once per day)?
Answer: 2.5 ± 0.2

Question: What about the “gross lesion formation in the lung” value [10, 38] of the same compound?
Answer: significantly suppressed

Question: `CC[C@H](C)[C@H](NC(=O)[C@H](CCC(N)=O)NC(=O)[C@H](Cc1c[nH]cn1)NC(=O)[C@H](C)NC(=O)[C@H](CC(C)C)NC(=O)[C@H](CCCCN)NC(=O)[C@H](CCC(N)=O)NC(=O)[C@@H](NC(=O)[C@@H](NC(=O)[C@@H]1CSSC[C@H](NC(=O)CNC(=O)[C@H](Cc2ccccc2)NC(=O)[C@H](CO)NC(=O)[C@H](CCCNC(=N)N)NC(=O)[C@H](CC(C)C)NC(=O)CNC(=O)[C@H](CCC(N)=O)NC(=O)[C@H](Cc2ccccc2)NC(=O)[C@H](CC(N)=O)NC(=O)[C@H](CC(N)=O)NC(=O)[C@H](CCSC)NC(=O)[C@H](CO)NC(=O)[C@H](CCC(N)=O)NC(=O)[C@H](CCCNC(=N)N)NC(=O)[C@@H](N)Cc2ccc(O)cc2)C(=O)N[C@@H](CCCNC(=N)N)C(=O)N[C@@H](Cc2ccccc2)C(=O)NCC(=O)N[C@@H]([C@@H](C)O)C(=O)N1)[C@@H](C)O)C(C)C)C(=O)N[C@@H](Cc1ccc(O)cc1)C(=O)N[C@@H](CCC(N)=O)C(=O)N[C@@H](Cc1ccccc1)C(=O)N[C@H](C(=O)N[C@@H](CC(=O)O)C(=O)N[C@@H](CCCCN)C(=O)N[C@@H](CC(=O)O)C(=O)N[C@@H](CCCCN)C(=O)N[C@@H](CC(=O)O)C(=O)N[C@@H](CC(N)=O)C(=O)N[C@H](C(=O)N[C@@H](C)C(=O)N1CCC[C@H]1C(=O)N[C@@H](CCCNC(=N)N)C(=O)N[C@@H](CO)C(=O)N[C@@H](CCCCN)C(=O)N[C@H](C(=O)N[C@@H](CO)C(=O)N1CCC[C@H]1C(=O)N[C@@H](CCC(N)=O)C(=O)NCC(=O)N[C@@H](Cc1ccc(O)cc1)C(N)=O)[C@@H](C)CC)C(C)C)[C@@H](C)O` [adrenomedullin] was tested. Which adverse events [11] did it give?
Answer: no adverse event directly caused by AM has been reported
